Laboratory results as given in PubChem BioAssay AID179 (DTP/NCI, 2004).
Activity calls are given as the source filed them.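 Rule for the calls: active = compounds giving half or more protection of infected cells from virus-caused growth loss, again on retest; inactive = the rest.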

Test system: CEM cells HIV-1 protection, formazan growth assay
Test: NCI AIDS Antiviral Assay
Conditions: for IC50: measured here: growth of uninfected CEM cells
In short: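 Screen of anti-HIV-1 activity in human CEM cells using a formazan-based growth measurement at five drug concentrations. Hits with 50% or greater protection were repeated, and confirmation required reproducible complete protection.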

Row | SMILES | outcome | EC50 [µM] | IC50 [µM]
1 | CCCC[n+]1ccn(-c2nc3ccccc3n2C)c1 | inactive |  | 
2 | COC(=O)C1=C(C(=O)OC)C2C(C)=CC(C)=CN2C(C#N)=C(SC)S1 (centres undefined) |  | > 13.8 | > 13.8
3 | COC(=O)C1=COC(C)C2CN3CCc4c([nH]c5cc(OC)ccc45)C3CC12 (centres undefined) |  | > 46.8 | > 46.8
4 | C=CCCC1(O)C(O)C(CO)O[C@H](O[C@@]2(CO)OC(CO)C(O)C2O)C1O (some centres undefined) | inactive |  | 
5 | CCN(CC)CCCNc1ccc([N+](=O)[O-])c2nc3ccc(OC)cc3c(N)c12 |  | > 200 | 0.776
6 | NC(=O)C(=CNC(=S)N=Nc1c(O)[nH]c2ccccc12)C(N)=O |  | > 200 | 166
7 | COc1cc(/C=C2\C(=O)N(c3ccccc3Cl)C(c3ccccc3)S2(=O)=O)cc(OC)c1OC (centres undefined) |  | > 200 | 85.1
8 | COC(=O)c1cc(C(=CCCCC(=O)O)c2cc(Cl)c(OC)c(C(=O)OC)c2)cc(Cl)c1OC |  | > 200 | > 200
9 | CCOc1ccccc1NC(=O)C(C#N)C1=C(Cl)C(=O)c2ccccc2C1=O (centres undefined) | inactive |  | 
10 | CCCC(S(=O)(=O)c1ccccc1)S(=O)(=O)c1ccccc1 | inactive |  | 
11 | COC(=O)C1(C)CCCC2(C)C1CCC13OCC(CC21)C1(C(C)C)OC31 (centres undefined) | inactive |  | 
12 | Oc1[nH]c2ccccc2c1N=Nc1nc(-c2ccc(Cl)c(Cl)c2)cs1 |  | > 200 | 40.7
13 | NN1C(=O)CSC1=S |  | > 912 | 295
14 | Cc1nnc(N)nc1C/C=C/C(C)Sc1ccc(Cl)cc1 (centres undefined) |  | > 200 | 6.61
15 | O=S1(=O)OCCOS(=O)(=O)C1(Cl)Cl |  | > 50.1 | > 50.1
16 | OCc1cc2c(cc1CO)OCC2 | inactive |  | 
17 | CCCCC(C)(C/C=C/[C@@H]1[C@@H](C(O)CCCCCC(=O)OC)C(=O)C[C@H]1O[Si](C)(C)C(C)(C)C)O[Si](C)(C)C (some centres undefined) | inactive |  | 
18 | CC(=O)O[C@H]1CC[C@H]2[C@@H]3CCC4C(C)=NNC(=O)C4[C@H]3CC[C@]12C (some centres undefined) |  | > 200 | > 200
19 | O=C(CC1Sc2ccccc2NC1=O)Nc1ccccc1[N+](=O)[O-] (centres undefined) |  | > 724 | 70.8
20 | O=C(C=Nc1ccccc1S)c1cccs1 |  | > 5.89 | > 5.89
21 | CNC(=O)OCc1c(COC(=O)NC)c2n(c1C)-c1ccc(OC)cc1CCC2 |  | > 123 | 2.14
22 | COc1c2occc2cc2ccc(=O)oc12 |  | > 83.2 | > 83.2
23 | Cc1noc(NS(=O)(=O)c2ccc(NC(=O)c3ccc4nc5ccccc5c(Nc5ccc(S(=O)(=O)Nc6onc(C)c6C)cc5)c4c3)cc2)c1C |  | 63.1 | 110

Row | SMILES | outcome | EC50 [µM] | IC50 [µM]
24 | C=C=C(C)[Si](C)(C)C |  | > 200 | > 200
25 | COc1ccc(C2C(Cl)C(=O)N2NC(=O)c2ccccc2O)cc1 (centres undefined) |  | > 145 | > 145
26 | CCOC(=O)C(C(CC(=O)OC)NC(=O)OCc1ccccc1)C1(C)OCCO1 (centres undefined) |  | > 251 | > 251
27 | CCN(CC)CCOc1cccc(/C=C(\C#N)c2ccccc2)c1 |  | > 100 | 7.76
28 | Cc1cccc(C)c1NC(=O)C(C#N)C1=C(Cl)C(=O)c2ccccc2C1=O (centres undefined) |  | > 26.3 | 8.71
29 | CN(C)c1cc(CNCCSC(c2ccccc2)(c2ccccc2)c2ccccc2)nc(CNCCSC(c2ccccc2)(c2ccccc2)c2ccccc2)c1 |  | > 200 | 3.02
30 | CCOc1ccc(N=Cc2ccc3cc(C)ccc3n2)cc1 | inactive |  | 
31 | OCC(CO)C1c2cccc3ccc4cccc1c4c23 | inactive |  | 
32 | O=C(CCCn1cnc([N+](=O)[O-])n1)NCCCn1ccnc1[N+](=O)[O-] |  | > 200 | > 200
33 | N#Cc1cc2c(cc1C#N)/C(=N\c1cccc(N)n1)N=C2Nc1cccc(N)n1 |  | > 200 | 4.07
34 | Nc1c(S(=O)(=O)c2ccccc2)c2nc3ccccc3nc2n2c1nc1ccccc12 |  | > 8.91 | > 8.91
35 | CC12CN3CC(C)(C1=O)C(=O)C(C)(C3)C2=O |  | > 117 | > 117
36 | CC(=O)OCC1OC(N2C(=O)[C@@H](Oc3ccccc3)[C@H]2/C=C/c2ccccc2)C(OC(C)=O)C(OC(C)=O)C1OC(C)=O (some centres undefined) |  | > 16.6 | > 16.6
37 | O=C1/C(=C\c2cccc(Oc3ccccc3)c2)SC(c2ccccc2)N1c1ccccc1Cl (centres undefined) |  | > 20 | 
38 | COC(=O)c1ccccc1/C=C1\Cc2ccc3c(c2C1=O)CCCC3 |  | > 200 | > 200
39 | CCOC(OCC)N1C(=O)C2(C(OCC)OCC)CC3C(OC(=O)N3N)c3cccc1c32 (centres undefined) | inactive |  | 
40 | CCN(CC)CCCCC1CCN(CC(=O)N2c3ccccc3NC(=O)CC2C)CC1 (centres undefined) |  | > 251 | 38.9
41 | CCOC(=O)C(=Cc1ccccc1F)C(=O)OCC |  | > 135 | 25.7
42 | CNC(=O)C1CCC(=O)N1CN(C(C)=O)c1ccccc1 (centres undefined) |  | > 200 | > 200
43 | O=C1c2ccccc2C(=O)N1[C@@H](Cc1ccccc1)C(=O)n1cccc1CO |  | > 200 | 174
44 | CCCCCC[N+](C)(C)Cc1ccc(C[N+](C)(C)CCCCCC)cc1 | inactive |  | 
45 | O=C(Nc1cccc(C(F)(F)F)c1)C(Cl)=C(Cl)Cl |  | > 200 | 2.34
46 | COc1ccc(C2ON(c3cccc(C)n3)CC=C2C)cc1 (centres undefined) |  | > 45.7 | > 45.7

Row | SMILES | outcome | EC50 [µM] | IC50 [µM]
47 | CNC(=S)N/N=C(\C(=N/NC(=S)NC)c1ccccn1)c1ccccn1 |  | > 0.2 | 0.0513
48 | O=C(/C=N/O)Nc1cccc(Cl)c1I |  | > 110 | 93.3
49 | CC(C)CC(N)CO (centres undefined) |  | > 200 | > 200
50 | CC1(C)C2CC3OC3(C)C1C2 (centres undefined) |  | > 200 | > 200
51 | COc1cc(/C=C2/SC(=S)NC2=O)cc(OC)c1O | inactive |  | 
52 | O=C(CN1CCN(c2ccccn2)CC1)N1CCCn2c1nc1ccccc1c2=O |  | > 200 | > 200
53 | COc1ccc(/C=N/Nc2nc3ccccc3c(=O)n2-c2ccccc2)c(OCc2ccccc2)c1 |  | > 200 | 
54 | COc1cc(C(=O)O)ccc1O |  | > 200 | > 200
55 | CC(C)c1ccc(S(=O)(=O)c2ccc([N+](=O)[O-])cc2[N+](=O)[O-])cc1 |  | > 200 | 0.851
56 | COC(=O)CC1(CNC(=O)OCc2ccccc2)OCCO1 |  | > 200 | > 200
57 | O=C(CC1(O)C(=O)Nc2ccc(Br)cc21)c1ccc(Cl)cc1Cl (centres undefined) |  | > 162 | 95.5
58 | Cc1c2ccccc2c(C)c2c3c(ccc12)C(=O)C=CC3=O | inactive |  | 
59 | COc1ccc(-c2cc(C3CC3)nc(SCC(=O)O)c2C#N)cc1 |  | > 200 | 39.8
60 | O=C(O)CCCSC(=O)Nc1ccc(N=Nc2ccccc2)cc1 | inactive |  | 
61 | O=c1n(Cc2ccccc2)c2ccccc2n1CC1CS1 (centres undefined) |  | > 45.7 | 19.5
62 | CC(=O)Nc1ccc(S(=O)(=O)Nc2ccc([N+](=O)[O-])cc2)cc1 | inactive | > 200 | > 200
63 | CCOC(=O)c1c(NC(=O)Nc2ccccc2)c(C(N)=O)c2n1CCCCC2 |  | > 100 | > 100
64 | O=[N+]([O-])c1cccc2nc3ccccc3c(NCCc3ccccn3)c12 |  | > 2 | 0.0631
65 | CN1C2C=CC(=O)C1C1C(=O)N(c3ccccc3)C(=O)C12 (centres undefined) |  | > 891 | 5.25
66 | CCOC(=O)NCC(OS(C)(=O)=O)C(CNC(=O)OCC)OS(C)(=O)=O (centres undefined) |  | > 120 | > 120
67 | COC(=O)C(CCSC)NC(=O)Cc1ccc(C(=O)c2ccccc2)cc1 (centres undefined) |  | > 200 | 34.7
68 | CC(=O)Oc1c2c(c(CC=C(C)C)c3c1C(=O)C1=C[C@@H]4CC5C(C)(C)OC(C/C=C(/C)C(=O)O)(C4=O)[C@@]15O3)OC(C)(CCC=C(C)C)C=C2 (some centres undefined) |  | > 2 | 0.324
69 | CN(C)c1ccc(/C=C(/C(=O)O)c2csc(-c3nc(/C(=C\c4ccc(N(C)C)cc4)C(=O)O)cs3)n2)cc1 |  | > 34.7 | > 34.7

Row | SMILES | outcome | EC50 [µM] | IC50 [µM]
70 | O=C(Nc1ccccc1)c1c(O)[nH]c(=S)[nH]c1=O |  | 11.2 | 21.4
71 | CC(=O)C(N1CCCCC1)C(O)(C(F)(F)F)C(F)(F)F (centres undefined) |  | > 200 | 91.2
72 | O=C(NCCc1c(-c2ccccc2)[nH]c2ccccc12)C1CCCCC1 |  | > 200 | 15.8
73 | COc1c(C2(c3ccc(F)cc3)SCCCS2)c(=O)c1=O |  | > 200 | > 200
74 | Cc1ccc(C(=O)OC[C@H]2CC[C@@H](n3cc(N(C)C4CCCCC4)c(=O)[nH]c3=O)O2)cc1 |  | > 200 | 53.7
75 | Cc1c(O)c2ccccc2c2c1sc(NCCCN(CCO)CCO)[n+]2C |  | > 200 | 11.2
76 | COC(=O)/C(C#N)=C/c1ccco1 |  | > 200 | > 200
77 | CC1CN(CCO)CC(C)O1 (centres undefined) |  | > 1580 | > 1580
78 | CC1(C)C2CCC(CN=C(N)CSS(=O)(=O)O)C1C2 (centres undefined) |  | > 200 | 33.1
79 | SCCN1CCCN(CCS)CCC1 |  | > 200 | 135
80 | CC(=O)N[C@]1(C)CCC2C[C@H]1C(C)=NC2(C)C |  | > 1050 | > 1050
81 | COC(=O)N1CCC(Sc2ccccc2)C2(CCOC(=O)c3ccccc3)CCC(O)C12 (centres undefined) |  | > 40.7 | > 40.7
82 | CCN(CC)CCN(C)CC(C)(C)C(=O)/C=C/c1ccccc1 | inactive |  | 
83 | CC(C)=C1C2CCC1C(CO)C2CO (centres undefined) |  | > 457 | > 457
84 | C[N+](C)(C)CC(=O)N/N=C/c1oc(-c2c(O)ccc3ccccc23)c(-c2c(O)ccc3ccccc23)c1[N+](=O)[O-] |  | > 45.7 | 24.5
85 | O=C1/C(=C/c2ccc(O)cc2)CCc2ccccc21 |  | > 200 | 20.9
86 | C=CCN1C(=O)CS/C1=N\NC(=O)CSc1nc2ccccc2c(=O)n1CC |  | > 200 | > 200
87 | CCOC(=O)Cc1cc(=O)[nH]c(-n2[nH]c(C)c(CCO)c2=O)n1 |  | > 200 | > 200
88 | NC(=O)C(=O)N/N=C1\C(=O)N(c2ccc(Cl)cc2Cl)C(=O)C1C(=O)Nc1ccc(Cl)cc1Cl (centres undefined) |  | > 7.08 | > 7.08
89 | COc1cc(C)cc2c1C(=O)C(NC(C)=O)=CC2=O |  | > 200 | 11.7
90 | COC(=O)C1Cc2c(OC)ccc(OC)c2C(O)C1C(=O)OC (centres undefined) |  | > 200 | > 200
